Where two headings read alike, the source gives them in different places.
Assays:
Test in all cases: biochemical
Set-up in all cases: Eurofins KinaseProfiler full panel at Km ATP, residual kinase activity (%) relative to DMSO
[1] = target: T1, NEK9(h) (Homo sapiens, UniProt Q8TD19)
T1 sequence (Q8TD19 1-979): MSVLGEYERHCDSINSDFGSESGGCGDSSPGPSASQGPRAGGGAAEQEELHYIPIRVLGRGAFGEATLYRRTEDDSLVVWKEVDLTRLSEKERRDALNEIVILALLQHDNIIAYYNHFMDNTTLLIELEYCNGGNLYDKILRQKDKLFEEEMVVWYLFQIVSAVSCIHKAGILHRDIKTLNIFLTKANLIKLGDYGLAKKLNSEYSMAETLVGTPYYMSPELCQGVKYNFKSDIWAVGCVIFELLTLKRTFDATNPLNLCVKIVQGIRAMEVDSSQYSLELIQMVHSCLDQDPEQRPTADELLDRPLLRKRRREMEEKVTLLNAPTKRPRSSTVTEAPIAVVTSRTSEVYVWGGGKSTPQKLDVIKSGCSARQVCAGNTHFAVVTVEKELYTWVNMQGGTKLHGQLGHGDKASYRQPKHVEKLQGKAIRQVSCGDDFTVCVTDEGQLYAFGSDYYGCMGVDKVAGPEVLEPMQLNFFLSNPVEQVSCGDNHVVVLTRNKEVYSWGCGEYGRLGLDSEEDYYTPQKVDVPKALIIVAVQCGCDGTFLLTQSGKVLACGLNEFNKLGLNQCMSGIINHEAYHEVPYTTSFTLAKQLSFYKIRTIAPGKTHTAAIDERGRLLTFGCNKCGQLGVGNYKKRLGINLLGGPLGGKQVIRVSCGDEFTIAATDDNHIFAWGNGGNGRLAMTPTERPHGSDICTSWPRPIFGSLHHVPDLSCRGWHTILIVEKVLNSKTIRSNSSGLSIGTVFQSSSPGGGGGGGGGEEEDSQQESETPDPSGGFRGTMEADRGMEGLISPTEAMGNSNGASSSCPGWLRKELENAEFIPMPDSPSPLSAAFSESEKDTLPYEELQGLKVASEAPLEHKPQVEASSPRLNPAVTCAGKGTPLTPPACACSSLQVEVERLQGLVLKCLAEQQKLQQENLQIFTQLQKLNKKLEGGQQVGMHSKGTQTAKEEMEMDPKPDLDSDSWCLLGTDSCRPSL
How it was run: (§1)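 Radiometric kinase activity assays were run with ATP at Km and compounds at 10 µM, and remaining activity (%) was reported. A separate competitive binding screen measured DNA-tagged kinase displaced from immobilized active-site ligands by qPCR, giving percent kinase still bound at 10 µM compound in DMSO.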

[2] = target: T2, SIK(h) (Homo sapiens, UniProt P57059)
T2 construct: gene SIK1
T2 sequence (P57059 whole entry): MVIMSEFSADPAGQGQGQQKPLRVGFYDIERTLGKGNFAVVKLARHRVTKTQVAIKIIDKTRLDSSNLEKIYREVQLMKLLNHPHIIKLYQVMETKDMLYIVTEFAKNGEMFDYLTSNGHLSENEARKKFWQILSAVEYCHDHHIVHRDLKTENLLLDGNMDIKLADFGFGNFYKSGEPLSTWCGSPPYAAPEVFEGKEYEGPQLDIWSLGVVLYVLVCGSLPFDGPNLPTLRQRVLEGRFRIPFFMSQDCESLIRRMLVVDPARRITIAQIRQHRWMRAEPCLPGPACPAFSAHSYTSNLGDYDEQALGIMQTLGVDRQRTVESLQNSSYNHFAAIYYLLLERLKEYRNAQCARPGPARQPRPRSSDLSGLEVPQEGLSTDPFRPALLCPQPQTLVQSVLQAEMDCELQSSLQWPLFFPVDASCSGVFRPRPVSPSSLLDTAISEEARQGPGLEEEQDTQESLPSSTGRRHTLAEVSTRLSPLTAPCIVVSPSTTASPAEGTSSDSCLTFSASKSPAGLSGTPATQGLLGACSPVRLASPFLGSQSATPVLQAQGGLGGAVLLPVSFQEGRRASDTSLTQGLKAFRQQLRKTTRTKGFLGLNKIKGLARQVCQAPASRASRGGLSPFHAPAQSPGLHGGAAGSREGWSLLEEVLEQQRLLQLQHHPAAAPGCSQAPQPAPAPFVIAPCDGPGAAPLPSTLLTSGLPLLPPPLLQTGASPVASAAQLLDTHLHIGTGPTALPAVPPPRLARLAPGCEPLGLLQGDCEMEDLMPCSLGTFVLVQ
How it was run: as §1

[3] = target: T3, DDR2(h) (Homo sapiens, UniProt Q16832)
T3 sequence (Q16832 1-855): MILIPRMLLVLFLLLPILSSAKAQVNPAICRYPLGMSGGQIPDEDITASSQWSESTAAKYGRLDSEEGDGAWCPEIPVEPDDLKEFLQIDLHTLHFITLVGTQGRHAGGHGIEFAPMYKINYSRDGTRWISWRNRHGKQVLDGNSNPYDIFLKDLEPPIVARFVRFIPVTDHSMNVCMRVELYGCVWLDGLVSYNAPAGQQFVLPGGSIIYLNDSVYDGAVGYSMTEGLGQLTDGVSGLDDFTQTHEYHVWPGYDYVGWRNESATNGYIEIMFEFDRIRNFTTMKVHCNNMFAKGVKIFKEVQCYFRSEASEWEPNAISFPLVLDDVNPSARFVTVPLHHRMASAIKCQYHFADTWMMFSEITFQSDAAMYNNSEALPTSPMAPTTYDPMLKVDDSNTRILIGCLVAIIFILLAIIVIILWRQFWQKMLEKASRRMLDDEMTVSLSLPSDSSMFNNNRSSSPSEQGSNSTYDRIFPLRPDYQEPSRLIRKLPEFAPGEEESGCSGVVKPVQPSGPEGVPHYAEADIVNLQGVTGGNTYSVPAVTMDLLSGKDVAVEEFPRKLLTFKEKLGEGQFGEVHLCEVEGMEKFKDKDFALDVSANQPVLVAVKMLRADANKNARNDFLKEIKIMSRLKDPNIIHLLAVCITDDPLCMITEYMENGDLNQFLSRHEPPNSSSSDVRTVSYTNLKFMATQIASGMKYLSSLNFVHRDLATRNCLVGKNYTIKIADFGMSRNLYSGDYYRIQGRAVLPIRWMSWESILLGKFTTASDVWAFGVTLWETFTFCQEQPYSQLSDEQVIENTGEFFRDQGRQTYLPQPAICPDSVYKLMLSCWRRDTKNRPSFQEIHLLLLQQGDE
How it was run: as §1

[4] = target: T4, Abl(T315I)(h) (Homo sapiens, UniProt P00519, T315I)
T4 construct: gene ABL1
How it was run: as §1

[5] = target: T5, PDGFRα(h) (Homo sapiens, UniProt P16234)
T5 construct: gene PDGFRA
T5 sequence (P16234 whole entry): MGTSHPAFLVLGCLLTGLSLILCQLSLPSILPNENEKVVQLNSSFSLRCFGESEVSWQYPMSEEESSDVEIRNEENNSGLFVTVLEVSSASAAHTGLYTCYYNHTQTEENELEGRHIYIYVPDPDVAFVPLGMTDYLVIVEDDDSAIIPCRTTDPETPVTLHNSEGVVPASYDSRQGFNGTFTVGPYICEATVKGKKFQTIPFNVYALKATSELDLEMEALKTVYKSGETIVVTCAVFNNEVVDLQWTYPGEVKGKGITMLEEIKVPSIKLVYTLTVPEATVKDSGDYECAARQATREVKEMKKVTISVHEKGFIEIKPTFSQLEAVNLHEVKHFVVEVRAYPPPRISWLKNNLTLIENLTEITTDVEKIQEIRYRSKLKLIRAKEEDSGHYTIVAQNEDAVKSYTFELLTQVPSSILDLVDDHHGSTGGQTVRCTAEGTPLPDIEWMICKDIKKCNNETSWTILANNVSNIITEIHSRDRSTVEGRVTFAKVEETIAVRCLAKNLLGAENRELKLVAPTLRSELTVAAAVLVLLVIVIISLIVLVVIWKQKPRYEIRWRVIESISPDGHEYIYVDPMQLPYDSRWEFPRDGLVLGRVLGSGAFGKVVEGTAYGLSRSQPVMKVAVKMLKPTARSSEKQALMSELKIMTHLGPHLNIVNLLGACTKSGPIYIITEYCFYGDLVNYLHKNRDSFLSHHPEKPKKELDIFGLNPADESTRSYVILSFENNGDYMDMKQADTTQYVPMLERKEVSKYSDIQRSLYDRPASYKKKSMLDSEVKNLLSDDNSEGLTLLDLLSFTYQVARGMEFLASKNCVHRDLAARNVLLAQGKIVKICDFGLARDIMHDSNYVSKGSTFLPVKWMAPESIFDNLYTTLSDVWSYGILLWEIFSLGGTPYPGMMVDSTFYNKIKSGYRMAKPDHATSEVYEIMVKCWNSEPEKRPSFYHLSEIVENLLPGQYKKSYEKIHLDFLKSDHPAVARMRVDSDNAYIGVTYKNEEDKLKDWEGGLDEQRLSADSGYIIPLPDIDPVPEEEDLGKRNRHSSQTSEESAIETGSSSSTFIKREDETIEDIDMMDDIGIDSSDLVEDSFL
How it was run: as §1

[6] = target: T6, Rsk4(h) (Homo sapiens, UniProt Q9UK32)
T6 construct: gene RPS6KA6
T6 sequence (Q9UK32 whole entry): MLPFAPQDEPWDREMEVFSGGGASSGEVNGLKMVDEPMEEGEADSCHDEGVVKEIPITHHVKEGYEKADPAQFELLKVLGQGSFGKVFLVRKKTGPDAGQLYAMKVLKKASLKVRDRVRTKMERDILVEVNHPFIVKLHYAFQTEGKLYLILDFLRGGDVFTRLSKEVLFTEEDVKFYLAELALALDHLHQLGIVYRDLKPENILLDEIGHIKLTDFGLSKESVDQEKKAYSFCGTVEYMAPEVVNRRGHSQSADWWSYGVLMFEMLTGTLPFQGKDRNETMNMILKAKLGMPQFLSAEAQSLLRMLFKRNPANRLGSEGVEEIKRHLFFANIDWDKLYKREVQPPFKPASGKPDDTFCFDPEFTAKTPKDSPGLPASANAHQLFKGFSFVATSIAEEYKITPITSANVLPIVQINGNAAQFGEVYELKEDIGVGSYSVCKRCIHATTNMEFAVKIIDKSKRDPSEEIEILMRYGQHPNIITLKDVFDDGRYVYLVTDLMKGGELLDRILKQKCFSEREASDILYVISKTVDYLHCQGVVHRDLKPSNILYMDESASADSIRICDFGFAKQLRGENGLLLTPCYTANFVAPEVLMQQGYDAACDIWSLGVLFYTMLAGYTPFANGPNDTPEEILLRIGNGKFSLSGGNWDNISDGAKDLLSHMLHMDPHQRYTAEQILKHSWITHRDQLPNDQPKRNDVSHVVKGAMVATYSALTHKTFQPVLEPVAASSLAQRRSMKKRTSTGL
How it was run: as §1

[7] = target: CLK3(h) (Homo sapiens, UniProt P49761)
CLK3(h), sequence (P49761 whole entry): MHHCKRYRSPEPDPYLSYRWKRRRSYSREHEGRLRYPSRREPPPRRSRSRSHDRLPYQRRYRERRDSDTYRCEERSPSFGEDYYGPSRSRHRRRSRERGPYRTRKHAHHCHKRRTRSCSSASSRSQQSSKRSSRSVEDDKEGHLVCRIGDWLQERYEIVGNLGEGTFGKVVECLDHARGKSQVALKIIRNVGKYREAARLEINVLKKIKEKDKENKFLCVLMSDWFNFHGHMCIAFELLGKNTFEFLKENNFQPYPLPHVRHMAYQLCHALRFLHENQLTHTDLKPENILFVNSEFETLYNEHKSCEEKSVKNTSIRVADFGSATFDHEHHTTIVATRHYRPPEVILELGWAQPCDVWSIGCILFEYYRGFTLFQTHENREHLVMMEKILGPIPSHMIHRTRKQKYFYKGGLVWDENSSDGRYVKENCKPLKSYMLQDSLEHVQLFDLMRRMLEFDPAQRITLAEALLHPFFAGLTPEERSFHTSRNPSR
How it was run: as §1

[8] = read-out: Residual activity (%) 5ay
[9] = read-out: Residual activity (%) Spautin-1 5aa
[10] = read-out: Residual activity (%) 5at
[11] = read-out: Residual activity (%) 5as

Molecule `COc1ccc2ncnc(Nc3cccc(F)c3)c2c1` [5ay, N-(3-Fluorophenyl)-6-Methoxy-4-Quinazolinamine] has a remaining activity at 10 µM [1, 8] of 92%, a remaining activity at 10 µM [2, 8] of 74% and a remaining activity at 10 µM [3, 8] of 84%. It also gave a remaining activity at 10 µM [4, 8] of 91%, a remaining activity at 10 µM [5, 8] of 101% and a remaining activity at 10 µM [6, 8] of 100%. For the same molecule, the remaining activity at 10 µM [7, 8] was 114%.
With `Fc1ccc(CNc2ncnc3ccc(F)cc23)cc1` [5aa, 6-Fluoro-N-(4-fluorobenzyl)-4-Quinazolinamine] the remaining activity at 10 µM [1, 9] was 98%, the remaining activity at 10 µM [2, 9] was 98% and the remaining activity at 10 µM [3, 9] was 87%. The remaining activity at 10 µM [4, 9] was 73%, the remaining activity at 10 µM [5, 9] was 111% and the remaining activity at 10 µM [6, 9] was 117%. For the same molecule, the remaining activity at 10 µM [7, 9] was 88%.
In the case of `Fc1ccc2ncnc(NCCc3ccc(Cl)cc3)c2c1` [5at, N-[2-(4-Chlorophenyl)Ethyl]-6-Fluoro-4-Quinazolinamine], the remaining activity at 10 µM [1, 10] is reported as 92%, the remaining activity at 10 µM [2, 10] is reported as 86% and the remaining activity at 10 µM [3, 10] is reported as 82%. For the same molecule, the remaining activity at 10 µM [4, 10] was 80%, the remaining activity at 10 µM [5, 10] was 95% and the remaining activity at 10 µM [6, 10] was 92%. For the same molecule, the remaining activity at 10 µM [7, 10] was 116%.
Work on `Fc1ccc(CCNc2ncnc3ccc(F)cc23)cc1` [5as, 6-Fluoro-N-[2-(4-Fluorophenyl)Ethyl]-4-Quinazolinamine] yielded a remaining activity at 10 µM [1, 11] of 103%, a remaining activity at 10 µM [2, 11] of 90% and a remaining activity at 10 µM [3, 11] of 80%. The remaining activity at 10 µM [4, 11] was 101%, the remaining activity at 10 µM [5, 11] was 90% and the remaining activity at 10 µM [6, 11] was 81%. It also gave a remaining activity at 10 µM [7, 11] of 117%.
